From patent US20080293626A1, “Pigment epithelium-derived factor as a therapeutic agent for vascular leakage” (The Johns Hopkins University, priority 2003, published 2008)
Ends that are not written are not given here.

What was measured:
[1] = tested on: VEGF-induced retinal vascular permeability; assay: Evans blue assay after intravitreal co-injection with VEGF164; type: in vivo, mouse (C57BL/6J); conditions: mouse eye, co-injected intravitreally with VEGF164 at 20-fold molar excess
Description: (§1) Intravitreal injection to assess bioactivity on vascular permeability. C57BL/6J mice, 6-8 weeks of age, were cared for in accordance with the Association for Research in Vision and Opthalmology Statement for the Use of Animals in Ophthalmic and Vision Research. For anesthesia, each received intramuscularly 20 mg/kg ketamine, 20 mg/kg xylazine and 800 mg/kg urethane in 0.3-0.4 ml of phosphate buffered saline (PBS, 1.06 mM KH2PO4, 0.15 M NaCl and 3.00 mM Na2HPO4, pH 7.4). Under 10× magnification, 1 μl of murine VEGF164 (12.6 ng/μl in PBS; R&D Systems, Minneapolis, Minn.) was delivered through a 20° beveled glass pipette, with a tip diameter of 13-20 μm. The contralateral eye received an equal volume of PBS alone or PBS containing 12.6 ng VEGF164, and a 20-fold molar excess of PEDF (232 ng), ACT (278 ng), HSP47 (278 ng), PEDFpep (28.1 ng), ACTpep (29.7 ng), or CHIMERApep (28.2 ng).
Evans Blue assay. […]
To assess the Evans blue-albumin concentration, the optical density of the retinal extract and plasma samples were measured at 620 nm and 740 nm. The retinal vasopermeability was calculated as the quantity of retinal Evans blue normalized to retinal dry weight, plasma Evans blue concentration, and circulation time by using the formula as described^32,44. […]

[2] = tested on: VEGF-induced retinal vascular permeability; assay: Fluorescein angiography after intravitreal co-injection with VEGF164; type: in vivo, mouse (C57BL/6J); conditions: mouse eye, co-injected intravitreally with 12.6 ng VEGF164 at 20-fold molar excess; 20 h after injection; qualitative
Description: as §1
Fluorescein angiograghy. Twenty hours after intravitreal injections, each pupil was dilated with one drop of 1% atropine sulfate. After intraperitoneal injection of 0.1 ml of 25% fluorescein, successive retina photographs were taken with a Kowa Genesis camera. The first photograph was taken within 20 seconds of the intraperitoneal fluorescein injection. […] Fluorescein leakage manifests as indistinct vascular borders progressing to diffusely hazy fluorescence.

[3] = tested on: VEGF164-stimulated bovine retinal capillary endothelial cell migration; conditions: 8 h
Description: BRCEC migration assay. Bovine retinal capillary endothelial cells (BRCEC) were isolated and cultured as described 45. […] Cells, between the fifth and ninth passage, were starved overnight in MEM with D-Val and 2% fetal bovine serum. Polycarbonate filters (10 μm pore-size, PVPF; Osmonics Inc., Minnetonka, Minn.) were coated with 100 μg/ml collagen. Quadruplicates with test samples in MEM D-Val (28 μl), and 10^4 cells in MEM D-Val (50 μl) were placed in the lower and upper wells, respectively, of the microchemotaxis chamber (NeuroProbe, Gaithersburg, Md.). After incubating 8 hours at 37° C., the non-migrated cells on the upper surface of the filter were removed, and the filters were stained with Harris' hematoxylin. For each of the test samples, one 400× field per quadrant of each of the quadruplicates was counted. From the total cell number in the 4 fields, the mean and standard error of the quadruplicate wells were calculated. Baseline migration equaled the number of migrated cells with MEM D-Val without any added proteins or peptides. The difference between baseline and the number of migrated cells with VEGF added equals maximal total migration.

IC50 [3]: 3 nM
Sequence: VLLSPLSVATALSALSLGAEQRTESIIHRALYYDLISSPDIHGT [PEDFpep]
inhibition of VEGF-induced retinal vascular permeability (Evans blue-albumin) ([1]; 24 h, VEGF-induced increase = 100%, mean ±SE): 83.7±17.1%
effect on VEGF-induced vascular permeability by Evans blue assay ([1]; qualitative statement): effectively inhibited
effect on VEGF-induced fluorescein leakage / vascular permeability (fluorescein angiography) [2]: effectively inhibits
